This note sets out measurements from patent US12479791B2, “Cationic lipid” (Takeda Pharmaceutical Company Limited, priority 2018, dated 2025).

In series [1] the test system is human colorectal cancer-derived cell line HCT116. The experiment in a line: Transfection of cultured cell with mRNA (luciferase luminescence). The class given is cell-based. The following applies: 10 ng luciferase mRNA, 24 hours. The protocol: A human colorectal cancer-derived cell line HCT116 was cultured at a cell density of 6000 cells/well in a 96-well plate. 24 hours later, 10 μl of the lipid particle containing 10 ng of luciferase mRNA was added to the medium. 24 hours after the addition of mRNA, a reagent of Picagene LT2.0 kit (Toyobo Co., Ltd.) was added to the culture plate of HCT116. The luminescence (count per sec (cps)) of luciferase was measured using a luminescence plate reader EnVision (PerkinElmer, Inc.).

A short description of series [2]: Analysis of luciferase mRNA-encapsulated lipid nanoparticle (Production Example 2). The following applies: for Rate of encapsulation / Average particle size: luciferase mRNA lipid nanoparticle; for mRNA concentration: luciferase mRNA lipid nanoparticle dispersion after dialysis and filtration; for Average particle size: cationic lipid:DPPC:cholesterol:GS-020=60:10.6:28:1.4. The class given is physicochemical. The source says: (§1) The particle size of the lipid particle (in the composition) can be measured by a known approach. For example, the particle size can be calculated as a Z-average particle size by the cumulant analysis of an autocorrelation function using a particle size measurement apparatus Zetasizer Nano ZS (Malvern Instruments) based on a dynamic light scattering measurement technique. The particle size (average particle size) of the lipid particle (in the composition) is, for example, 10 to 200 nm, preferably 60 to 170 nm.
(§2) The concentration and rate of encapsulation of the nucleic acid (e.g., siRNA or mRNA) in the composition of the present invention can be measured by a known approach. For example, the nucleic acid is fluorescently labeled using Quant-iT™ RiboGreen® (Invitrogen Corp.), and the fluorescence intensity can be measured to determine the concentration and the rate of encapsulation. The concentration of the nucleic acid in the composition can be calculated using a calibration curve prepared from aqueous nucleic acid solutions having known concentrations. The rate of encapsulation can be calculated on the basis of the difference in fluorescence intensity between the presence and absence of addition of Triton-X 100 (surfactant for disrupting the lipid particle). The concentration of the nucleic acid in the composition refers to the total concentration of a nucleic acid encapsulated in the lipid particle and an unencapsulated nucleic acid. The rate of encapsulation refers to the ratio of the nucleic acid encapsulated in the lipid particle to all nucleic acids in the composition.
A lipid mixture (cationic lipid:DPPC:cholesterol:GS-020=60:10.6:28:1.4, molar ratio) was dissolved in 90% of EtOH and 10% of water to obtain an 8.5 mg/ml lipid solution. Luciferase mRNA (TriLink BioTechnologies, Inc.) was dissolved in a 10 mM 2-morpholinoethanesulfonic acid (MES) buffer solution (pH 4.0) to obtain a 0.22 mg/ml nucleic acid solution. The obtained lipid solution and nucleic acid solution were mixed at a flow rate ratio of 3 ml/min:6 ml/min at room temperature using NanoAssemblr apparatus (Precision NanoSystems Inc.) to obtain a dispersion containing a composition. The obtained dispersion was dialyzed against water at room temperature for 1 hour and against PBS at 4° C. for 48 hours using Slyde-A-Lyzer (molecular weight cutoff: 20 K, Thermo Fischer Scientific Inc.). Subsequently, the dialysate was filtered through a 0.2 μm syringe filter (Iwaki) and preserved at 4° C.

A further series concerns FVII gene. The experiment in a line: Hepatic FVII gene knockdown in CCl4 hepatic fibrosis mouse model. The class given is in vivo. The following applies: male Balb/c mouse, Col1a1 siRNA + FVII siRNA 0.1 + 0.1 mg/kg intravenous, liver 4 days after administration, qPCR normalized with GAPDH. The protocol: (§3) The Col1a1 siRNA-encapsulated lipid nanoparticle was administered at 0.1 mg/kg into the orbital plexus of the vein of each 8-week-old male Balb/c mouse. 3 hours later, CCl4 mixed with corn oil was orally administered at a dose of 0.1 mL/kg (10 mL/kg) by forced single-dose administration (n=6 in each group). 4 days after the administration of the siRNA-encapsulated lipid nanoparticle, the liver was collected from the mouse euthanized under anesthesia, followed by gene expression analysis by quantitative PCR. The Col1a1 gene expression level and the FVII gene expression level were normalized with the expression level of GAPDH. The amount of decrease in Col1a1 gene expression as compared with a siRNA non-administration group was regarded as the rate of knockdown. In mice intravenously given the siRNA-encapsulated lipid nanoparticle formed using the compound of the present invention, the knockdown of the activated stellate cell marker gene Col1a1 gene was strongly observed, as compared with the rate of knockdown of the hepatic parenchymal cell marker gene FVII.

A short description of series [3]: Analysis of Col1a1 siRNA + FVII siRNA-encapsulated lipid nanoparticle (Production Example 3). The class given is physicochemical. The following applies: for Rate of encapsulation / Particle size: Col1a1 siRNA + FVII siRNA lipid nanoparticle; for Particle size: cationic lipid:DPPC:cholesterol:GS-020=60:10.6:28:1.4; for Col1a1 siRNA + FVII siRNA concentration: lipid nanoparticle dispersion after dialysis and filtration.
Excerpt: as §1, §2
A lipid mixture (cationic lipid:DPPC:cholesterol:GS-020=60:10.6:28:1.4, molar ratio) was dissolved in 90% of EtOH and 10% of a 25 mM acetate buffer solution (pH 4.0) to obtain a 7.4 mg/ml lipid solution. siRNA against collagen 1a1 (Col1a1) and siRNA against factor VII (FVII) were dissolved in equal weights in a 25 mM acetate buffer solution (pH 4.0) to obtain a 0.15 mg/ml nucleic acid solution. The sequences of Col1a1 siRNA and FVII siRNA were quoted from Hepatology, […], No. 4, 2015, and Silence, Vol. 1, No. 16, 2010, respectively. The obtained lipid solution and nucleic acid solution were mixed at a flow rate ratio of 1 ml/min:5 ml/min using a microfluidic mixing apparatus NanoAssemblr (Precision NanoSystems Inc.) to obtain a dispersion containing a composition. The obtained dispersion was dialyzed against water at room temperature for 1 hour and against PBS at room temperature for 18 hours using Slyde-A-Lyzer (molecular weight cutoff: 20 K, Thermo Fischer Scientific Inc.). Subsequently, the dialysate was filtered through a 0.2 μm syringe filter (Iwaki) and preserved at 4° C. The siRNA-encapsulated lipid nanoparticle was very favorably formed using the compound of the present invention.

The next series concerns Col1a1 gene. The experiment in a line: Hepatic collagen 1a1 gene knockdown in CCl4 hepatic fibrosis mouse model. The following applies: male Balb/c mouse, Col1a1 siRNA + FVII siRNA 0.1 + 0.1 mg/kg intravenous, liver 4 days after administration, qPCR normalized with GAPDH, vs siRNA non-administration group. The class given is in vivo. Here is the method:
as §3

In the case of `CCCCCCCC(=O)OCC(COC(=O)CCCCCN(C)C)(COC(=O)C(CCCCCC)CCCCCC)COC(=O)C(CCCCCC)CCCCCC` [Example 8], in series [1] (Table 6 (PBS control 1040)), the “Average luminescence (cps) of 3 wells” value is on record as 381693 cps. In series [2], the Rate of encapsulation is recorded as 91%, the mRNA concentration is 97 µg/mL and the Average particle size came to 103 nm.

Regarding `CCCCCCCC(=O)OCC(COC(=O)CCCCCCC)(COC(=O)CCCCN(C)C)COC(=O)CCC(CCCCC)C(CCCCC)CCCCC` (stereo not shown) [Example 13, 3-((5-(Dimethylamino)pentanoyl)oxy)-2,2-bis((octanoyloxy)methyl)propyl 4,5-dipentyldecanoate], in the series on FVII gene, the “Rate of FVII knockdown” value is reported as 15%. In addition, in series [3], the Rate of encapsulation stood at 97%, the Particle size is 103 nm and the “Col1a1 siRNA + FVII siRNA concentration” value came to 122 µg/mL. For the same compound, the “Rate of Col1a1 knockdown” value in the series with Col1a1 gene worked out at 86%. For the same compound, the “Average luminescence (cps) of 3 wells” value in series [1] (Table 9 (PBS control 80)) amounted to 269467 cps. Moreover, in series [2], the Rate of encapsulation stood at 99%, the mRNA concentration came to 155 µg/mL and the Average particle size is 119 nm.

Regarding `CCCCCCCC(=O)OCC(COC(=O)CCCCCCC)(COC(=O)CCCCCN(C)C)COC(=O)CCC(CCCC)C(CCCC)CCCC` (stereo not shown) [Example 11, 3-((6-(Dimethylamino)hexanoyl)oxy)-2,2-bis((octanoyloxy)methyl)propyl 4,5-dibutylnonanoate], the “Rate of FVII knockdown” value in the series on FVII gene came out at 21%. Also, in series [3], the Rate of encapsulation came to 97%, the Particle size was 91 nm and the “Col1a1 siRNA + FVII siRNA concentration” value turned out to be 320 µg/mL. For the same compound, the “Rate of Col1a1 knockdown” value with Col1a1 gene is listed as 77%. Further, in series [1] (Table 8 (PBS control 1293)), the “Average luminescence (cps) of 3 wells” value is 572560 cps. In series [2], the Rate of encapsulation is 93%, the mRNA concentration was found to be 78 µg/mL and the Average particle size is 122 nm.

Regarding `CCCCCCCC(=O)OCC(COC(=O)CCCCCCC)(COC(=O)CCCCN(C)C)COC(=O)CCC(CCC)C(CCC)CCC` (stereo not shown) [Example 17, 3-((5-(Dimethylamino)pentanoyl)oxy)-2,2-bis((octanoyloxy)methyl)propyl 4,5-dipropyloctanoate], the “Average luminescence (cps) of 3 wells” value in series [1] (Table 10 (PBS control 293)) was determined as 7987 cps. In series [2], this compound displayed a Rate of encapsulation of 87%, a mRNA concentration of 116 µg/mL and an Average particle size of 152 nm.

Regarding `CCCCCCCC(=O)OCC(COC(=O)CCCCCCC)(COC(=O)CCCCN(C)C)COC(=O)CCC(CCCC)C(CCCC)CCCC` (stereo not shown) [Example 10, 3-((5-(Dimethylamino)pentanoyl)oxy)-2,2-bis((octanoyloxy)methyl)propyl 4,5-dibutylnonanoate], in the series on FVII gene, the “Rate of FVII knockdown” value came to 0%. For the same compound, in series [3], the Rate of encapsulation is 97%, the Particle size is 101 nm and the “Col1a1 siRNA + FVII siRNA concentration” value is 137 µg/mL. In addition, the “Rate of Col1a1 knockdown” value in the series with Col1a1 gene stood at 77%. Further, the “Average luminescence (cps) of 3 wells” value in series [1] (Table 8 (PBS control 1293)) was found to be 500747 cps. Besides, in series [1] (Table 9 (PBS control 80)), the “Average luminescence (cps) of 3 wells” value is 176813 cps. For the same compound, the “Average luminescence (cps) of 3 wells” value in series [1] (Table 10 (PBS control 293)) came to 112893 cps. In series [2], the Rate of encapsulation is 96%, the mRNA concentration worked out at 83 µg/mL and the Average particle size is listed as 123 nm.

In the case of `CCCCCC(=O)OCC(COC(=O)CCCCC)(COC(=O)CCCCN(C)C)COC(=O)CCC(CCCC)C(CCCC)CCCC` (stereo not shown) [Example 15, 3-((5-(Dimethylamino)pentanoyl)oxy)-2,2-bis((hexanoyloxy)methyl)propyl 4,5-dibutylnonanoate], the “Average luminescence (cps) of 3 wells” value in series [1] (Table 10 (PBS control 293)) was found to be 3293 cps. For the same compound, in series [2], the Rate of encapsulation is reported as 99%, the mRNA concentration amounted to 127 µg/mL and the Average particle size came to 164 nm.

Take `CCCCCC(=O)OCC(COC(=O)CCCCC)(COC(=O)CCCCN(C)C)COC(=O)CCC(CCCCC)C(CCCCC)CCCCC` (stereo not shown) [Example 12, 3-((5-(Dimethylamino)pentanoyl)oxy)-2,2-bis((hexanoyloxy)methyl)propyl 4,5-dipentyldecanoate]: the “Average luminescence (cps) of 3 wells” value in series [1] (Table 9 (PBS control 80)) was found to be 62587 cps. In series [2], this compound returned a Rate of encapsulation of 93%, a mRNA concentration of 160 µg/mL and an Average particle size of 134 nm.

On to `CCCCCCCC(=O)OCC(COC(=O)CCCCN(C)C)(COC(=O)CC(CCCCC)CCCCC)COC(=O)CC(CCCCC)CCCCC` [Example 9], for which, in series [1] (Table 7 (PBS control 413)), the “Average luminescence (cps) of 3 wells” value is reported as 63493 cps. In series [2], this compound gave a Rate of encapsulation of 94%, a mRNA concentration of 77 µg/mL and an Average particle size of 96 nm.

On to `CCCCCCCC(=O)OCC(COC(=O)CCCCCCC)(COC(=O)CCCN(C)C)COC(=O)CCC(CCCC)C(CCCC)CCCC` (stereo not shown) [Example 19, 3-((4-(Dimethylamino)butanoyl)oxy)-2,2-bis((octanoyloxy)methyl)propyl 4,5-dibutylnonanoate], for which, in the series with FVII gene, the “Rate of FVII knockdown” value came out at 31%. Also, in series [3], the Rate of encapsulation is 96%, the Particle size is given as 89 nm and the “Col1a1 siRNA + FVII siRNA concentration” value amounted to 112 µg/mL. Moreover, in the series on Col1a1 gene, the “Rate of Col1a1 knockdown” value came out at 71%.

With `CCCCCCCC(=O)OCC(COC(=O)CCCCCCC)(COC(=O)CCC(CCCC)C(CCCC)CCCC)COC(=O)NCCCCN(C)C` (stereo not shown) [Example 18, 3-(((4-(Dimethylamino)butyl)carbamoyl)oxy)-2,2-bis((octanoyloxy)methyl)propyl 4,5-dibutylnonanoate], the “Average luminescence (cps) of 3 wells” value in series [1] (Table 10 (PBS control 293)) is 12813 cps. In series [2], this compound came in with a Rate of encapsulation of 99%, a mRNA concentration of 103 µg/mL and an Average particle size of 77 nm.
